Results from patent US10662146B2, “Prodrugs of fencamfamine” (Praxis Bioresearch, LLC, priority 2015, dated 2020).
Several values for one entry are separate records, joined by “and”; a condition that tells them apart may be missing. Equal entries are not always repeated. Where two headings read alike, the source gives them in different places.

Legend:
[1] = system: spontaneous locomotor activity; experiment: Spontaneous locomotor activity (sLMA), intravenous administration; type: in vivo, Male SD rats; details: i.v. 2 mg/kg, 90 min recording, vs vehicle
Procedure: Male SD rats were intravenously administered with PRX-002(−) (2 mg/kg) and prodrug PRX-P4-003 [(25.8 mg/kg, equivalent to 10 mg/kg of PRX-002 (−)], and vehicle just before sLMA test.
Vehicle was: 10% PEG 400 (v/v)+30% (v/v) of (50% w/v) Hydroxypropyl-ß-cyclodextrin in water+60% (v/v) sterile water for injection (SWFI): 1 ml/kg volume.
PRX-P4-003 solution was: 25.8 mg/ml PRX-P4-003 (25.8 mg/kg: equivalent to 10 mg/ml active drug, i.v. @volume of 1 ml/kg). 42.3 mg PRX-P4-003 was added to vehicle 1.639 ml, vortexed for 30 min under room temperature to get a uniform suspension solution, suspension solution was continuously stirred during dosage.
The PRX-P4-002(−) solution was: 2 mg/ml PRX-P4-002(−) (2 mg/kg, i.v.@volume of 1 ml/kg). 4.5 mg PRX-002(−) was added to 2.25 ml Vehicle, vortexed for 30 min under room temperature to get a clear solution, the solution was continuously stirred during dosage.
Rat was placed at the center of test chamber for the 90 min sLMA video recording. (n=3/group).

[2] = Single dose oral PK study in male Sprague Dawley rats (plasma by LC-MS/MS); type: in vivo; details: for Plasma concentration of PRX-002 (−) Isomer: PRX-002 (−) Isomer oral 5 mg/kg b.w.; for AUC(0-inf) / AUC(0-t) / Cmax / MRT last / half-life: po
Procedure: We describe here PK results of prodrugs of PRX-002 (−) or (+) isomers. All doses of prodrugs were administered such that they were equivalent to 5 mg/kg of PRX-002 (−) or (+) for oral studies and 2 mg/kg PRX-002 (−) or (+) for intravenous studies in male Sprague-Dawley (MSD) rats. Higher doses of up to 10 or 15 mg/kg [again equivalent to PRX-002 (−)] were used in some studies (as specified)]. Formulation preparation, dose administration and time of sample collection was as follows.
Test item was weighed [5 mg equivalent dose of PRX-002 for prodrugs] and transferred to a graduated tube. Then 10 μL of Tween 80 was added and vortexed mixed until the test item was completely mixed. Small volume of 0.5% (w/v) carboxymethylcellulose in water solution was then added dropwise with continuous vortex mixing until a uniform suspension was obtained. The final volume was then made up to 10 mL with 0.5% (w/v) carboxymethylcellulose in water with final strength of 0.5 mg/mL. […] This formulation was freshly prepared before the administration to animals.
(§1) Adult male Sprague Dawley Rats aged 8-10 weeks were used for the study. Fasted animals were administered test item by oral route with a dose of 5 mg/kg body weight at dose volume of 10 mL/kg body weight. Under mild isoflurane anesthesia, blood specimens were collected by retro-orbital puncture method using capillary tubes into pre-labeled tubes containing anticoagulant (K2EDTA-2 mg/mL blood) during the next 24 hours of post dose as mentioned in below table. For blood sampling at multiple time points, right and left eyes were used alternatively for blood collection. Collected blood specimens were centrifuged at 4000 rpm, 4° C. for 10 minutes and plasma were separated and stored at −80° C. until analysis.
Blood was collected as outlined in Table 39.1 (oral).
(§2) Test item PRX-P4-003 was weighed and transferred to a graduated tube. Then 12.42 μL of Tween 80 was added and vortexed mixed until the test item was completely mixed. Small volume of 0.5% (w/v) Carboxymethylcellulose in water solution was then added dropwise with continuous vortex mixing until a uniform suspension was obtained. The final volume was then made up to 12.42 mL with 0.5% (w/v) Carboxymethylcellulose in water with final strength of 1.0 mgA/mL. […] This formulation was freshly prepared before the administration to animals.
as §1, with “with a PRX-P4-003” for “test item”, “10” for “5”
as §2, with “PRX-P5-006” for “PRX-P4-003”, “10” for “12.42”, “3.97 mg/mL.” for “1.0 mgA/mL.”
Adult male Sprague Dawley Rats aged 8-10 weeks were used for the study. Fasted animals were administered with a PRX-P5-006 by oral route with a dose of 15 mg/kg body weight at dose volume of 10 mL/kg body weight. […]

[3] = PRX-P5-006 oral 5 mg/kg b.w., individual animals, 5 mg/kg
[4] = PRX-P5-006 oral 5 mg/kg, mean, 5 mg/kg

CCN[C@@H]1[C@@H]2CC[C@@H](C2)[C@H]1c1ccccc1 [PRX-002 (−) Isomer, (1R,2R,3S,4S)—N-Ethyl-3-phenylbicyclo[2.2.1]heptan-2-amine, reference compound]
Spontaneous locomotor activity (sLMA): total traveling distance and duration [1]: significantly increased sLMA
Plasma concentration of PRX-002 (−) Isomer ([2]; 0.00 h, mean): 0.00
Plasma concentration of PRX-002 (−) Isomer ([2]; 0.08 h, mean): 0.00
Plasma concentration of PRX-002 (−) Isomer ([2]; 0.25 h, mean): 50.20
Plasma concentration of PRX-002 (−) Isomer ([2]; 0.50 h, mean): 159.35
Plasma concentration of PRX-002 (−) Isomer ([2]; 1.00 h, mean): 170.35
Plasma concentration of PRX-002 (−) Isomer ([2]; 2.00 h, mean): 101.07
Plasma concentration of PRX-002 (−) Isomer ([2]; 4.00 h, mean): 21.30
Plasma concentration of PRX-002 (−) Isomer ([2]; 6.00 h, mean): 0.00
Plasma concentration of PRX-002 (−) Isomer ([2]; 24.00 h, mean): 0.00
AUC% extrap of PRX-002 (−) Isomer ([2]; PRX-002 (−) Isomer oral 5 mg/kg, mean): 12.904 ± 1.8410%
AUC(0-inf) ([2]; male, Sprague Dawley, rat, in vivo, 5 mg/kg, PRX-002 (−) Isomer oral 5 mg/kg, mean, read-out: AUCinf of PRX-002 (−) Isomer): 427 ± 122 ng·h/mL
AUC(0-t) ([2]; male, Sprague Dawley, rat, in vivo, 5 mg/kg, PRX-002 (−) Isomer oral 5 mg/kg, mean, read-out: AUClast of PRX-002 (−) Isomer): 371 ± 99.5 ng·h/mL
Cmax ([2]; male, Sprague Dawley, rat, in vivo, 5 mg/kg, PRX-002 (−) Isomer oral 5 mg/kg, mean, read-out: Cmax of PRX-002 (−) Isomer): 176 ± 47.5 ng/mL
MRT last ([2]; male, Sprague Dawley, rat, in vivo, 5 mg/kg, PRX-002 (−) Isomer oral 5 mg/kg, mean, read-out: MRTlast of PRX-002 (−) Isomer): 1.47 ± 0.104 h
half-life ([2]; male, Sprague Dawley, rat, in vivo, 5 mg/kg, PRX-002 (−) Isomer oral 5 mg/kg, mean, read-out: T1/2 of PRX-002 (−) Isomer (converted)): 1.86 ± 0.132 h
Tmax ([2]; male, Sprague Dawley, rat, in vivo, PRX-002 (−) Isomer oral 5 mg/kg, mean, read-out: Tmax of PRX-002 (−) Isomer): 0.833 ± 0.289 h

CCCCCCCCCCCCCCCCCC(=O)OC(C)OC(=O)N(CC)C1C2CCC(C2)C1c1ccccc1 (single isomer, unassigned) [PRX-P5-006, N-(1-Octadecanoyloxyethoxycarbonyl)-(−)-N-ethyl-3-phenylbicyclo[2.2.1]heptan-2-amine]
AUC% extrap of PRX-P5-006 [2, 3]: 62.02% and 50.02% and 31.64%
AUCinf of PRX-P5-006 [2, 3]: 132.93 ng·h/mL and 88.37 ng·h/mL
AUClast of PRX-P5-006 [2, 3]: 66.44 ng·h/mL and 60.40 ng·h/mL
Cmax of PRX-P5-006 [2, 3]: 72.65 ng/mL and 67.85 ng/mL
MRTlast of PRX-P5-006 [2, 3]: 1.05 h
T1/2 of PRX-P5-006 [2, 3]: 3.31 h and 1.91 h
AUC% extrap of PRX-P5-006 [2, 4]: 47.896 ± 15.3010% and 47.896%
T1/2 of PRX-P5-006 [2, 4]: 2.907 h
AUC(0-inf) ([2]; male, Sprague Dawley, rat, in vivo, 5 mg/kg, PRX-P5-006 oral 5 mg/kg, mean, read-out: AUCinf of PRX-P5-006): 115 ± 23.3 ng·h/mL
AUC(0-t) ([2]; male, Sprague Dawley, rat, in vivo, 5 mg/kg, PRX-P5-006 oral 5 mg/kg, mean, read-out: AUClast of PRX-P5-006): 57.8 ± 10.2 ng·h/mL
half-life ([2]; male, Sprague Dawley, rat, in vivo, 5 mg/kg, PRX-P5-006 oral 5 mg/kg, mean, read-out: T1/2 of PRX-P5-006 (converted)): 2.91 ± 0.865 h
Cmax ([2]; male, Sprague Dawley, rat, in vivo, 15 mg/kg, oral 15 mg/kg (footnote *), analyte: prodrug in plasma, mean, read-out: Oral PK Parameters Cmax, Prodrug): 81.6 ± 42.2 ng/mL
Tmax ([2]; male, Sprague Dawley, rat, in vivo, oral 5 mg/kg [equivalent to PRX-002 (−)], analyte: prodrug in plasma, mean, read-out: Oral PK Parameters Tmax, Prodrug): 0 h
AUC ([2]; male, Sprague Dawley, rat, in vivo, oral 15 mg/kg (footnote *), analyte: prodrug in plasma, mean, read-out: Oral PK Parameters AUC, Prodrug): 477 ± 54.4 ng·h/mL
Tmax ([2]; male, Sprague Dawley, rat, in vivo, oral 15 mg/kg (footnote *), analyte: prodrug in plasma, mean, read-out: Oral PK Parameters Tmax, Prodrug): 0.8 ± 0.3 h
AUC(0-inf) ([2]; male, Sprague-Dawley, rat, in vivo, 5 mg/kg, PRX-P5-006 oral 5 mg/kg b.w., individual animals, read-out: AUCinf of PRX-P5-006): 123 ng·h/mL
AUC(0-t) ([2]; male, Sprague-Dawley, rat, in vivo, 5 mg/kg, PRX-P5-006 oral 5 mg/kg b.w., individual animals, read-out: AUClast of PRX-P5-006): 46.6 ng·h/mL
Cmax ([2]; male, Sprague-Dawley, rat, in vivo, 5 mg/kg, PRX-P5-006 oral 5 mg/kg b.w., individual animals, read-out: Cmax of PRX-P5-006): 43.9 ng/mL
MRT last ([2]; male, Sprague-Dawley, rat, in vivo, 5 mg/kg, PRX-P5-006 oral 5 mg/kg b.w., individual animals, read-out: MRTlast of PRX-P5-006): 1.1 h
half-life ([2]; male, Sprague-Dawley, rat, in vivo, 5 mg/kg, PRX-P5-006 oral 5 mg/kg b.w., individual animals, read-out: T1/2 of PRX-P5-006 (converted)): 3.5 h
Cmax ([2]; male, Sprague-Dawley, rat, in vivo, 5 mg/kg, PRX-P5-006 oral 5 mg/kg, mean, read-out: Cmax of PRX-P5-006): 61.5 ± 15.4 ng/mL
MRT last ([2]; male, Sprague-Dawley, rat, in vivo, 5 mg/kg, PRX-P5-006 oral 5 mg/kg, mean, read-out: MRTlast of PRX-P5-006): 1.07 ± 0.025 h
Tmax ([2]; male, Sprague-Dawley, rat, in vivo, PRX-P5-006 oral 5 mg/kg, mean, read-out: Tmax of PRX-P5-006): 1 h
